pIC50: −log10 of the molar value.
Test system: MDA-MB-231 multicell spheroids, viability (%T/C)
Assay: Anticancer human tumor MDA-MB-231 cell line growth inhibition [IpAb];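 note: viability read after seven days of drug exposure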;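 for viability, T/C: 100% = DMSO vehicle control viability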
Conditions: for pIC50: curve of first compound; for viability, T/C: stronger effect = lower value
Procedure, shortened: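 Combinations with ipatasertib or abemaciclib were tested on tumour spheroids holding HUVEC (25%) and MSC (15%) alongside 60% malignant cells. Top concentration was at or near clinical Cmax (10 microM if undefined), descending in half-log steps.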

[1] = second compound 0.01 µM, first compound 0.0316 µM
[2] = second compound 0.01 µM, first compound 0.1 µM
[3] = second compound 0.01 µM, first compound 0.316 µM
[4] = second compound 0.01 µM, first compound 1 µM
[5] = second compound 0.01 µM, first compound 3.16 µM
[6] = second compound 0.01 µM, first compound 10 µM
[7] = second compound 0.0316 µM, first compound 0.0316 µM
[8] = second compound 0.0316 µM, first compound 0.1 µM
[9] = second compound 0.0316 µM, first compound 0.316 µM
[10] = second compound 0.0316 µM, first compound 1 µM
[11] = second compound 0.0316 µM, first compound 3.16 µM
[12] = second compound 0.0316 µM, first compound 10 µM
[13] = second compound 0.1 µM, first compound 0.0316 µM
[14] = second compound 0.1 µM, first compound 0.1 µM
[15] = second compound 0.1 µM, first compound 0.316 µM
[16] = second compound 0.1 µM, first compound 1 µM
[17] = second compound 0.1 µM, first compound 3.16 µM
[18] = second compound 0.1 µM, first compound 10 µM
[19] = second compound 0.316 µM, first compound 0.0316 µM
[20] = second compound 0.316 µM, first compound 0.1 µM
[21] = second compound 0.316 µM, first compound 0.316 µM
[22] = second compound 0.316 µM, first compound 1 µM
[23] = second compound 0.316 µM, first compound 3.16 µM
[24] = second compound 0.316 µM, first compound 10 µM
[25] = second compound 1 µM, first compound 0.0316 µM
[26] = second compound 1 µM, first compound 0.1 µM
[27] = second compound 1 µM, first compound 0.316 µM
[28] = second compound 1 µM, first compound 1 µM
[29] = second compound 1 µM, first compound 3.16 µM
[30] = second compound 1 µM, first compound 10 µM

Cn1nccc1Nc1nccc(-c2ccn(C(CO)c3ccc(Cl)c(F)c3)c(=O)c2)n1 (stereo not given) + CCN1CCN(Cc2ccc(Nc3ncc(F)c(-c4cc(F)c5nc(C)n(C(C)C)c5c4)n3)nc2)CC1
pIC50 (second compound 0.01 µM): 6.97 | pIC50 (second compound 0.0316 µM): > 7.50 | pIC50 (second compound 0.1 µM): > 7.50 | pIC50 (second compound 0.316 µM): > 7.50 | pIC50 (second compound 1 µM): > 7.50 | viability, T/C [1]: 58% | viability, T/C [2]: 50.2% | viability, T/C [3]: 41.8% | viability, T/C [4]: 37% | viability, T/C [5]: 29.8% | viability, T/C [6]: 21.9% | viability, T/C [7]: 45.3% | viability, T/C [8]: 42.2% | viability, T/C [9]: 35.6% | viability, T/C [10]: 28.4% | viability, T/C [11]: 24.1% | viability, T/C [12]: 23.9% | viability, T/C [13]: 34.8% | viability, T/C [14]: 34.1% | viability, T/C [15]: 27.6% | viability, T/C [16]: 24% | viability, T/C [17]: 19.9% | viability, T/C [18]: 19.2% | viability, T/C [19]: 29.6% | viability, T/C [20]: 27.2% | viability, T/C [21]: 20.7% | viability, T/C [22]: 20.6% | viability, T/C [23]: 20.2% | viability, T/C [24]: 18.8% | viability, T/C [25]: 30.5% | viability, T/C [26]: 25.7% | viability, T/C [27]: 19.3% | viability, T/C [28]: 20.7% | viability, T/C [29]: 18.6% | viability, T/C [30]: 18.7%

C=CC(=O)N1CCN(c2nc(=O)n(-c3c(C)ccnc3C(C)C)c3nc(-c4c(O)cccc4F)c(F)cc23)C(C)C1 (stereo not given) + CCN1CCN(Cc2ccc(Nc3ncc(F)c(-c4cc(F)c5nc(C)n(C(C)C)c5c4)n3)nc2)CC1
pIC50 (second compound 0.01 µM): < 5.00 | pIC50 (second compound 0.0316 µM): < 5.00 | pIC50 (second compound 0.1 µM): < 5.00 | pIC50 (second compound 0.316 µM): < 5.00 | pIC50 (second compound 1 µM): < 5.00 | viability, T/C [1]: 91.9% | viability, T/C [2]: 93.1% | viability, T/C [3]: 107% | viability, T/C [4]: 120% | viability, T/C [5]: 111% | viability, T/C [6]: 76.3% | viability, T/C [7]: 78.5% | viability, T/C [8]: 88.4% | viability, T/C [9]: 89.9% | viability, T/C [10]: 101% | viability, T/C [11]: 92.3% | viability, T/C [12]: 66.4% | viability, T/C [13]: 61.3% | viability, T/C [14]: 66.2% | viability, T/C [15]: 73.8% | viability, T/C [16]: 84.4% | viability, T/C [17]: 74% | viability, T/C [18]: 59.1% | viability, T/C [19]: 48.3% | viability, T/C [20]: 51.3% | viability, T/C [21]: 58.6% | viability, T/C [22]: 65.9% | viability, T/C [23]: 60.7% | viability, T/C [24]: 59% | viability, T/C [25]: 50.8% | viability, T/C [26]: 56.2% | viability, T/C [27]: 61.1% | viability, T/C [28]: 67.1% | viability, T/C [29]: 71.7% | viability, T/C [30]: 61.8%

CC(C)(C)c1cnc(CSc2cnc(NC(=O)C3CCNCC3)s2)o1 + CCN1CCN(Cc2ccc(Nc3ncc(F)c(-c4cc(F)c5nc(C)n(C(C)C)c5c4)n3)nc2)CC1
pIC50 (second compound 0.01 µM): 6.77 | pIC50 (second compound 0.0316 µM): 6.83 | pIC50 (second compound 0.1 µM): 6.92 | pIC50 (second compound 0.316 µM): 7.48 | pIC50 (second compound 1 µM): 7.44 | viability, T/C (second compound 0.01 µM, first compound 0.00949 µM): 92.2% | viability, T/C (second compound 0.01 µM, first compound 0.03 µM): 102% | viability, T/C (second compound 0.01 µM, first compound 0.0949 µM): 106% | viability, T/C (second compound 0.01 µM, first compound 0.3 µM): 1.81% | viability, T/C (second compound 0.01 µM, first compound 0.949 µM): 0.77% | viability, T/C (second compound 0.01 µM, first compound 3 µM): 0.81% | viability, T/C (second compound 0.0316 µM, first compound 0.00949 µM): 76.8% | viability, T/C (second compound 0.0316 µM, first compound 0.03 µM): 82.2% | viability, T/C (second compound 0.0316 µM, first compound 0.0949 µM): 83.9% | viability, T/C (second compound 0.0316 µM, first compound 0.3 µM): 1.55% | viability, T/C (second compound 0.0316 µM, first compound 0.949 µM): 0.68% | viability, T/C (second compound 0.0316 µM, first compound 3 µM): 0.85% | viability, T/C (second compound 0.1 µM, first compound 0.00949 µM): 59.1% | viability, T/C (second compound 0.1 µM, first compound 0.03 µM): 63.1% | viability, T/C (second compound 0.1 µM, first compound 0.0949 µM): 66% | viability, T/C (second compound 0.1 µM, first compound 0.3 µM): 1.37% | viability, T/C (second compound 0.1 µM, first compound 0.949 µM): 0.89% | viability, T/C (second compound 0.1 µM, first compound 3 µM): 1.1% | viability, T/C (second compound 0.316 µM, first compound 0.00949 µM): 47.4% | viability, T/C (second compound 0.316 µM, first compound 0.03 µM): 53.4% | viability, T/C (second compound 0.316 µM, first compound 0.0949 µM): 46.1% | viability, T/C (second compound 0.316 µM, first compound 0.3 µM): 1.36% | viability, T/C (second compound 0.316 µM, first compound 0.949 µM): 0.96% | viability, T/C (second compound 0.316 µM, first compound 3 µM): 0.95% | viability, T/C (second compound 1 µM, first compound 0.00949 µM): 52.7% | viability, T/C (second compound 1 µM, first compound 0.03 µM): 53.4% | viability, T/C (second compound 1 µM, first compound 0.0949 µM): 34.9% | viability, T/C (second compound 1 µM, first compound 0.3 µM): 1.87% | viability, T/C (second compound 1 µM, first compound 0.949 µM): 1.16% | viability, T/C (second compound 1 µM, first compound 3 µM): 1.42%

CCCS(=O)(=O)Nc1ccc(F)c(C(=O)c2c[nH]c3ncc(-c4ccc(Cl)cc4)cc23)c1F + CCN1CCN(Cc2ccc(Nc3ncc(F)c(-c4cc(F)c5nc(C)n(C(C)C)c5c4)n3)nc2)CC1
pIC50 (second compound 0.01 µM): 5.16 | pIC50 (second compound 0.0316 µM): 5.33 | pIC50 (second compound 0.1 µM): 5.54 | pIC50 (second compound 0.316 µM): 6.05 | pIC50 (second compound 1 µM): 6.26 | viability, T/C [1]: 105% | viability, T/C [2]: 104% | viability, T/C [3]: 110% | viability, T/C [4]: 93.9% | viability, T/C [5]: 70.5% | viability, T/C [6]: 40.1% | viability, T/C [7]: 82.9% | viability, T/C [8]: 87.4% | viability, T/C [9]: 86.4% | viability, T/C [10]: 80.2% | viability, T/C [11]: 57.6% | viability, T/C [12]: 34.9% | viability, T/C [13]: 70.5% | viability, T/C [14]: 66.4% | viability, T/C [15]: 66.6% | viability, T/C [16]: 62.8% | viability, T/C [17]: 48.8% | viability, T/C [18]: 32.9% | viability, T/C [19]: 52.8% | viability, T/C [20]: 53.5% | viability, T/C [21]: 51% | viability, T/C [22]: 47.8% | viability, T/C [23]: 44.3% | viability, T/C [24]: 23.4% | viability, T/C [25]: 51.9% | viability, T/C [26]: 55% | viability, T/C [27]: 53.1% | viability, T/C [28]: 45.6% | viability, T/C [29]: 43.8% | viability, T/C [30]: 32.6%
